Assay results: US10072006B2 (MUTABILIS, priority 2015, dated 2018)

Legend:
TEM-1 = target: T1, TEM-1 (Escherichia coli, UniProt P62593); assay: β-lactamase inhibitory activity, determination of IC50 (nitrocefin hydrolysis); type: biochemical; conditions: class (A), 30 min pre-incubation
T1 construct: made in house; host or cells: E. coli

SHV-1 = target: T2, SHV-1 (Klebsiella pneumoniae, UniProt P0AD64); assay: as above; type: biochemical
T2 construct: made in house; host or cells: E. coli

CTX-M-15 = target: T3, CTX-M-15 (Escherichia coli, UniProt Q9EXV5); assay: as above; type: biochemical
T3 construct: made in house; host or cells: E. coli
T3 sequence (Q9EXV5 entry or part of it): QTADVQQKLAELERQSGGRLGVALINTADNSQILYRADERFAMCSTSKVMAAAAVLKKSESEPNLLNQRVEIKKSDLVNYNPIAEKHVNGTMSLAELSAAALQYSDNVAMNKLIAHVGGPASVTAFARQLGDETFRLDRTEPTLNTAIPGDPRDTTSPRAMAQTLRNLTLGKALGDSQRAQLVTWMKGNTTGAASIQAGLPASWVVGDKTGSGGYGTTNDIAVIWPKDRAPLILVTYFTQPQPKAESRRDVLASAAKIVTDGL

KPC-2 = target: T4, KPC-2 (Klebsiella pneumoniae, UniProt Q9F663); assay: as above; type: biochemical
T4 construct: made in house; host or cells: E. coli
T4 sequence (Q9F663 25-293 limits assumed): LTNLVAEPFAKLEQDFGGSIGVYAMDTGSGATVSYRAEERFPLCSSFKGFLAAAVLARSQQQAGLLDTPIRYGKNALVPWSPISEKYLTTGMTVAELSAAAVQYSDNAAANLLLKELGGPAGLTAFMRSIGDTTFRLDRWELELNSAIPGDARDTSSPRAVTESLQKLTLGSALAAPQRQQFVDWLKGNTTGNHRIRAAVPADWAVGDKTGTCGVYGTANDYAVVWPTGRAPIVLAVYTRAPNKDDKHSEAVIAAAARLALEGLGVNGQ

OXA-15 = target: T5, OXA-15 (Pseudomonas aeruginosa, UniProt Q51574); assay: as above; type: biochemical
T5 construct: made in house; host or cells: E. coli
T5 sequence (Q51574 22-275): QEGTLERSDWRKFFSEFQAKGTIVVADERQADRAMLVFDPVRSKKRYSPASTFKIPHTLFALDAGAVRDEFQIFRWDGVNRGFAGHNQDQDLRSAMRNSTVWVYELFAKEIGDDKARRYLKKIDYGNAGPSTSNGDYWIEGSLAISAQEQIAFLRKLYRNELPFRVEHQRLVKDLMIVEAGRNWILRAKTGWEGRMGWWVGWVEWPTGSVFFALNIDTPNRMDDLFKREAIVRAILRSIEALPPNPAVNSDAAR

OXA-48 = target: T6, OXA-48 (Klebsiella pneumoniae, UniProt Q6XEC0); assay: as above; type: biochemical
T6 construct: made in house; host or cells: E. coli
T6 sequence (Q6XEC0 23-265 limits assumed): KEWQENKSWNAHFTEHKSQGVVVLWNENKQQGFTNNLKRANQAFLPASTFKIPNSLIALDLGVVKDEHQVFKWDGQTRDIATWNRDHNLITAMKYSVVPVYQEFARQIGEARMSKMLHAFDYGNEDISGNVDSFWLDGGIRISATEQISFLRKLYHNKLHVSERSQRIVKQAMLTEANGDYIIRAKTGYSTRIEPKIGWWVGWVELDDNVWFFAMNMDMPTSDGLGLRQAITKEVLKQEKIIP

[1] = test system: K. pneumoniae UFR68 (TEM-1, SHV-11, CTX-M-15, KPC-3); assay: microbe, parasite or virus in culture; type: cell-based; conditions: for MIC: Klebsiella pneumoniae, 18 h, read-out: MIC compounds of the invention alone
[2] = test system: E. cloacae P99 (Derepressed ampC); assay: MIC of compounds and synergy with ceftazidime (broth microdilution); type: cell-based; conditions: strain P99 (E. cloacae); for MIC: Enterobacter cloacae, 18 h, read-out: MIC compounds of the invention alone; for MIC, combination of CAZ and compounds of the invention: MIC of ceftazidime with compound fixed at 4 μg/mL
Method in brief: (§1)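 Each compound, alone and in DMSO, is spotted onto sterile polystyrene plates, which are then incubated in ambient air at 35° C for 16 to 20 h. Inhibition of bacterial growth, judged visually, defines the MIC as the lowest effective concentration.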

[3] = test system: E. coli 131119 (TEM-1, OXA-48); assay: as above; type: cell-based; conditions: strain 131119 (E. coli); for MIC: Escherichia coli, 18 h, read-out: MIC compounds of the invention alone; for MIC, combination of CAZ and compounds of the invention: MIC of ceftazidime with compound fixed at 4 μg/mL
Method in brief: as §1

E. coli RGN238 (OXA-1) = assay: as above; type: cell-based; conditions: strain RGN238 (E. coli); for MIC: Escherichia coli, 18 h, read-out: MIC compounds of the invention alone; for MIC, combination of CAZ and compounds of the invention: MIC of ceftazidime with compound fixed at 4 μg/mL
Method in brief: as §1

[4] = test system: E. coli UFR18 (CTX-M-15, OXA-204); assay: as above; type: cell-based; conditions: strain UFR18 (E. coli); for MIC: Escherichia coli, 18 h, read-out: MIC compounds of the invention alone; for MIC, combination of CAZ and compounds of the invention: MIC of ceftazidime with compound fixed at 4 μg/mL
Method in brief: as §1

[5] = test system: K. pneumoniae BAA-1898 (TEM-1, SHV-11, SHV-12, KPC-2); assay: as above; type: cell-based; conditions: strain BAA-1898 (K. pneumoniae); for MIC: Klebsiella pneumoniae, BAA1898, read-out: MIC compounds of the invention alone; for MIC, combination of CAZ and compounds of the invention: MIC of ceftazidime with compound fixed at 4 μg/mL
Method in brief: as §1

[6] = test system: K. pneumoniae UFR24 (TEM-1, SHV-2, SHV-11, OXA-1, OXA-48, OXA-47); assay: as above; type: cell-based; conditions: strain UFR24 (K. pneumoniae); for MIC: Klebsiella pneumoniae, 18 h, read-out: MIC compounds of the invention alone; for MIC, combination of CAZ and compounds of the invention: MIC of ceftazidime with compound fixed at 4 μg/mL
Method in brief: as §1

[7] = test system: K. pneumoniae UFR77 (CMY-2); assay: as above; type: cell-based; conditions: strain UFR77 (K. pneumoniae); for MIC: Klebsiella pneumoniae, 18 h, read-out: MIC compounds of the invention alone; for MIC, combination of CAZ and compounds of the invention: MIC of ceftazidime with compound fixed at 4 μg/mL
Method in brief: as §1

[8] = test system: P. aeruginosa CIP107051 (TEM-24); assay: as above; type: cell-based; conditions: strain CIP107051 (P. aeruginosa); for MIC, combination of CAZ and compounds of the invention: MIC of ceftazidime with compound fixed at 4 μg/mL; for MIC: Pseudomonas aeruginosa, 18 h, read-out: MIC compounds of the invention alone
Method in brief: as §1

[9] = test system: P. aeruginosa UFR35 (OXA-23); assay: as above; type: cell-based; conditions: strain UFR35 (P. aeruginosa); for MIC: Pseudomonas aeruginosa, 18 h, read-out: MIC compounds of the invention alone
Method in brief: as §1

[10] = test system: P. aeruginosa UFR47 (VIM-1); assay: as above; type: cell-based; conditions: strain UFR47 (P. aeruginosa); for MIC: Pseudomonas aeruginosa, 18 h, read-out: MIC compounds of the invention alone
Method in brief: (§2)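 First, test compounds prepared in DMSO are spotted on sterile plates. Next, plates incubate at 35° C under ambient air for 16-20 h. Finally, wells are inspected by eye, and the lowest concentration without growth gives the MIC.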

[11] = test system: P. aeruginosa UFR59 (IMP-29); assay: as above; type: cell-based; conditions: strain UFR59 (P. aeruginosa); for MIC: Pseudomonas aeruginosa, 18 h, read-out: MIC compounds of the invention alone
Method in brief: as §1

[12] = test system: E. cloacae UFR85 (TEM-1, CTX-M-15, derepressed ampC); assay: microbe, parasite or virus in culture; type: cell-based; conditions: for MIC: Enterobacter cloacae, 18 h, read-out: MIC compounds of the invention alone
Experimental: […] […] Microplates were incubated for 16-20 h at 35° C. in ambient air. The MIC of the compounds was defined as the lowest concentration of said compounds that prevented bacterial growth as read by visual inspection.

[13] = test system: K. oxytoca UFR21 (TEM-1, CTX-M-15, OXA-48); assay: microbe, parasite or virus in culture; type: cell-based; conditions: for MIC: Klebsiella oxytoca, 18 h, read-out: MIC compounds of the invention alone
[14] = test system: K. pneumoniae 200047 (TEM-1, SHV-32, CTX-M-15, OXA-1); assay: microbe, parasite or virus in culture; type: cell-based; conditions: for MIC: Klebsiella pneumoniae, 18 h, read-out: MIC compounds of the invention alone
[15] = test system: E. cloacae 260508 (TEM-1, CTX-M-15); assay: microbe, parasite or virus in culture; type: cell-based; conditions: for MIC: Enterobacter cloacae, read-out: MIC compounds of the invention alone; for MIC, combination of CAZ and compounds of the invention: MIC of ceftazidime with compound fixed at 4 μg/mL, strain 260508 (E. cloacae)
Method in brief: as §1

[16] = test system: E. coli 190317 (TEM-1, SHV-12, CTX-M-15, OXA-1); assay: microbe, parasite or virus in culture; type: cell-based; conditions: for MIC: Escherichia coli, 18 h, read-out: MIC compounds of the invention alone; for MIC, combination of CAZ and compounds of the invention: MIC of ceftazidime with compound fixed at 4 μg/mL, strain 190317 (E. coli)
Method in brief: as §2

[17] = test system: K. pneumoniae 160143 (TEM-1, SHV-1, CTX-M-15, KPC-2, OXA-1); assay: microbe, parasite or virus in culture; type: cell-based; conditions: for MIC: Klebsiella pneumoniae, 18 h, read-out: MIC compounds of the invention alone
Method in brief: as §1

AmpC (P99) = AmpC (P99) (Enterobacter cloacae, UniProt P05364); assay: biochemical
AmpC (P99), sequence (P05364 21-381): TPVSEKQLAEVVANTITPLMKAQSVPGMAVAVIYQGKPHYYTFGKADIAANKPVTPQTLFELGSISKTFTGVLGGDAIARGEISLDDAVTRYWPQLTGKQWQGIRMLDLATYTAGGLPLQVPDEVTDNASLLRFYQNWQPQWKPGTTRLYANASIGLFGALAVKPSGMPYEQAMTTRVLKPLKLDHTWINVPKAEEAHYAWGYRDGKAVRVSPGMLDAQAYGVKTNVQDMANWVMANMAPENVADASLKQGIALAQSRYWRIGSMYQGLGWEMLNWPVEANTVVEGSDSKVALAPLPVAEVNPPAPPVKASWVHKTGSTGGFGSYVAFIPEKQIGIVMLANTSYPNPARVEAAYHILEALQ

AmpC (PAE) = AmpC (PAE) (Pseudomonas aeruginosa, UniProt P24735); assay: biochemical
AmpC (PAE), sequence (P24735 27-397): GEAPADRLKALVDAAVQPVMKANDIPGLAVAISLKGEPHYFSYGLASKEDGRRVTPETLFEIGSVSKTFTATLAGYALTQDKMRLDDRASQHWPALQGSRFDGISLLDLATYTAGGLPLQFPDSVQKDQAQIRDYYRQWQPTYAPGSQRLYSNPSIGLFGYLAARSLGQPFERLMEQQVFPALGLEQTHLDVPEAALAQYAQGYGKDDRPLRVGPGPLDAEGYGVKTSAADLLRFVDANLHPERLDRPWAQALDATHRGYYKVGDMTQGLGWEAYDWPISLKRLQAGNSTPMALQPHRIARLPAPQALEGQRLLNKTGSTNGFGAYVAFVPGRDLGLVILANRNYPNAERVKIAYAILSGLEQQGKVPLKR

[18] = MIC of ceftazidime with compound fixed at 4 μg/mL

T2 sequence (P0AD64 22-286): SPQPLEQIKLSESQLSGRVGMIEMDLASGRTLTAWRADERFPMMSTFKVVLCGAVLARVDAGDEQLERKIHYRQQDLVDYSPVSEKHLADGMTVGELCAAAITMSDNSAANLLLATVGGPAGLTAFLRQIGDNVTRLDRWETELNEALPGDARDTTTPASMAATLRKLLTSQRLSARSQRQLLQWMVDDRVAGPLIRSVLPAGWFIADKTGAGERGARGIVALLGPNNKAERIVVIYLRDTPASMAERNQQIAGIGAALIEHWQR
T1 sequence (P62593 24-286 limits assumed): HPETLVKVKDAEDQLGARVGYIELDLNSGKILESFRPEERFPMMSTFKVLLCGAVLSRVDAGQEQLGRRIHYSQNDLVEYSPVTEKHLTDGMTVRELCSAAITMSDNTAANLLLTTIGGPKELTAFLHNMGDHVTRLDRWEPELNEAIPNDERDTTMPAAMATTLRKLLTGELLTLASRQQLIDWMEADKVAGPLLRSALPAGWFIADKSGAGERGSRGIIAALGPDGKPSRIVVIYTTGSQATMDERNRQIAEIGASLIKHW

SMILES: NC[C@@H]1C(c2nccs2)=C[C@@H]2CN1C(=O)N2OS(=O)(=O)[O-].O=C(O)C(F)(F)F.[Na+] [Example 2, Sodium and 2,2,2-trifluoroacetate [(2S,5R)-2-(azaniumylmethyl)-7-oxo-3-thiazol-2-yl-1,6-diazabicyclo[3.2.1]oct-3-en-6-yl] sulfate]
- IC50 (TEM-1): 1.7 nM
- IC50 (SHV-1): 0.74 nM
- IC50 (CTX-M-15): 0.76 nM
- IC50 (KPC-2): 3.9 nM
- IC50 (OXA-15): 0.84 nM
- IC50 (OXA-48): 3.5 nM
- MIC [1]: 16 µg/mL
- MIC [2]: ≤ 0.016 µg/mL
- MIC, combination of CAZ and compounds of the invention [2]: <0.25 µg/mL
- MIC [3]: ≤ 0.016 µg/mL
- MIC, combination of CAZ and compounds of the invention [3]: <0.25 µg/mL
- MIC (E. coli RGN238 (OXA-1)): 8 µg/mL
- MIC, combination of CAZ and compounds of the invention (E. coli RGN238 (OXA-1)): ≤0.125 µg/mL
- MIC [4]: ≤ 0.016 µg/mL
- MIC, combination of CAZ and compounds of the invention [4]: <0.25 µg/mL
- MIC [5]: 16 µg/mL
- MIC, combination of CAZ and compounds of the invention [5]: ≤0.125 µg/mL
- MIC [6]: > 32 µg/mL
- MIC, combination of CAZ and compounds of the invention [6]: 0.25 µg/mL
- MIC [7]: 32 µg/mL
- MIC, combination of CAZ and compounds of the invention [7]: 2 µg/mL
- MIC, combination of CAZ and compounds of the invention [8]: <0.25 µg/mL
- MIC [8]: 2 µg/mL
- MIC, combination of CAZ and compounds of the invention [9, 18]: <0.25 µg/mL
- MIC [9]: 2 µg/mL
- MIC, combination of CAZ and compounds of the invention [10, 18]: <0.25 µg/mL
- MIC [10]: 2 µg/mL
- MIC, combination of CAZ and compounds of the invention [11, 18]: <0.25 µg/mL
- MIC [11]: 8 µg/mL
- MIC [12]: 16 µg/mL
- MIC [13]: 16 µg/mL
- MIC [14]: 16 µg/mL
- MIC [15]: ≤ 0.016 µg/mL
- MIC, combination of CAZ and compounds of the invention [15]: <0.25 µg/mL
- MIC [16]: ≤ 0.016 µg/mL
- MIC, combination of CAZ and compounds of the invention [16]: <0.25 µg/mL
- MIC [17]: 8 µg/mL
- IC50 (AmpC (P99)): 3.2 nM
- IC50 (AmpC (PAE)): 110 nM

SMILES: NC[C@@H]1C(c2ncco2)=C[C@@H]2CN1C(=O)N2OS(=O)(=O)[O-].O=C(O)C(F)(F)F.[Na+] [Example 5, Sodium and 2,2,2-trifluoroacetate [(2S,5R)-2-(azaniumylmethyl)-7-oxo-3-oxazol-2-yl-1,6-diazabicyclo[3.2.1]oct-3-en-6-yl] sulfate]
- IC50 (TEM-1): 110 nM
- IC50 (SHV-1): 64 nM
- IC50 (CTX-M-15): 130 nM
- IC50 (KPC-2): 1800 nM
- IC50 (OXA-15): 8 nM
- IC50 (OXA-48): 180 nM
- MIC [1]: 32 µg/mL
- MIC, combination of CAZ and compounds of the invention ([1]; MIC of ceftazidime with compound fixed at 4 μg/mL, strain UFR68 (K. pneumoniae)): ≤0.25 µg/mL
- MIC [2]: ≤ 0.016 µg/mL
- MIC, combination of CAZ and compounds of the invention [2]: <0.25 µg/mL
- MIC [3]: 0.063 µg/mL
- MIC, combination of CAZ and compounds of the invention [3]: <0.25 µg/mL
- MIC (E. coli RGN238 (OXA-1)): 16 µg/mL
- MIC, combination of CAZ and compounds of the invention (E. coli RGN238 (OXA-1)): <0.25 µg/mL
- MIC [4]: ≤ 0.016 µg/mL
- MIC, combination of CAZ and compounds of the invention [4]: <0.25 µg/mL
- MIC [5]: 16 µg/mL
- MIC, combination of CAZ and compounds of the invention [5]: ≤0.125 µg/mL
- MIC [6]: > 32 µg/mL
- MIC, combination of CAZ and compounds of the invention [6]: <0.25 µg/mL
- MIC [7]: > 32 µg/mL
- MIC, combination of CAZ and compounds of the invention [7]: <0.25 µg/mL
- MIC, combination of CAZ and compounds of the invention [8]: <0.25 µg/mL
- MIC [8]: 2 µg/mL
- MIC [9]: 0.25 µg/mL
- MIC [10]: 1 µg/mL
- MIC [11]: 2 µg/mL
- MIC [12]: 8 µg/mL
- MIC, combination of CAZ and compounds of the invention ([12]; MIC of ceftazidime with compound fixed at 4 μg/mL, strain UFR85 (E. cloacae)): <0.25 µg/mL
- MIC [13]: 32 µg/mL
- MIC, combination of CAZ and compounds of the invention ([13]; MIC of ceftazidime with compound fixed at 4 μg/mL, strain UFR21 (K. oxytoca)): <0.25 µg/mL
- MIC [14]: 16 µg/mL
- MIC, combination of CAZ and compounds of the invention ([14]; MIC of ceftazidime with compound fixed at 4 μg/mL, strain 200047 (K. pneumoniae)): <0.25 µg/mL
- MIC [15]: 8 µg/mL
- MIC, combination of CAZ and compounds of the invention [15]: <0.25 µg/mL
- MIC [16]: ≤ 0.016 µg/mL
- MIC, combination of CAZ and compounds of the invention [16]: <0.25 µg/mL
- MIC [17]: 32 µg/mL
- MIC, combination of CAZ and compounds of the invention ([17]; MIC of ceftazidime with compound fixed at 4 μg/mL, strain 160143 (K. pneumoniae)): <0.25 µg/mL
- IC50 (AmpC (P99)): 11000 nM
- IC50 (AmpC (PAE)): 12000 nM
